{
  "source": "patent US20090227587A1",
  "about": "“Pyrimidines as inhibitors of phosphoinositide-3-kinases (PI3K)” (Warner-Lambert Company LLC, priority 2003, published 2009)",
  "data": [
    {"biological_target": "T1, p101/p110γ protein (PI3Kγ) (Homo sapiens, UniProt P48736)", "T1 construct": "HA; made in house; host or cells: Spodoptera frugiperda (Sf9) cells, baculovirus co-infection", "T1 sequence (P48736 whole entry, species assumed)": "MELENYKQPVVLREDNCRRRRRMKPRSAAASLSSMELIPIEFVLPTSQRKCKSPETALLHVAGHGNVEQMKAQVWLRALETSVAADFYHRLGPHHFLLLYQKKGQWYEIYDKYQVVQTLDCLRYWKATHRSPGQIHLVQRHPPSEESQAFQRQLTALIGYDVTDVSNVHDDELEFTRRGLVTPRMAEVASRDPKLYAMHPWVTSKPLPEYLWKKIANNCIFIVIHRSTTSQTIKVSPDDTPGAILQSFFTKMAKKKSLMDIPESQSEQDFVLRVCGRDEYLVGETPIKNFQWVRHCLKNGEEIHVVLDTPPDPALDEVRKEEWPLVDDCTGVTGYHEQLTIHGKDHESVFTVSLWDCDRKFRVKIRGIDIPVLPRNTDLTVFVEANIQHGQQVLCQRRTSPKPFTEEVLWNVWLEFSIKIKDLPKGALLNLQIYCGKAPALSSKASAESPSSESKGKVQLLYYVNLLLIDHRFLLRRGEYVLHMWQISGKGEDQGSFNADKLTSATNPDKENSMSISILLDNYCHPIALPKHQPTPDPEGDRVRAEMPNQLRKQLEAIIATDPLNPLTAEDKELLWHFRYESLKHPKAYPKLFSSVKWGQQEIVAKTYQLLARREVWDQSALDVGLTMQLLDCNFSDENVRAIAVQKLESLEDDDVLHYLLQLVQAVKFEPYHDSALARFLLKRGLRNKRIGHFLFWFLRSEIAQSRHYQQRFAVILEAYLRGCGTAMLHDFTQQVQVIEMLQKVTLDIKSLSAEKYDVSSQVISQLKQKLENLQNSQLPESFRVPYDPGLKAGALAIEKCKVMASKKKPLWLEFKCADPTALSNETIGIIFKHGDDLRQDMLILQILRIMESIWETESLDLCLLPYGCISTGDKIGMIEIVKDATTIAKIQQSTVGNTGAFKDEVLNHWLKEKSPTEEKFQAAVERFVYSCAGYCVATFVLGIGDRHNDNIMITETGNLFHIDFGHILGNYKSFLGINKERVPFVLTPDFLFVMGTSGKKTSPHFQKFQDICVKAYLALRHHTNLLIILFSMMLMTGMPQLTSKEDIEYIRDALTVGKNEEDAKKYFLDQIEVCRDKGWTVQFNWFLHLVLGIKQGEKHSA", "T1 sequence (Q8WYR1 whole entry partner, species assumed)": "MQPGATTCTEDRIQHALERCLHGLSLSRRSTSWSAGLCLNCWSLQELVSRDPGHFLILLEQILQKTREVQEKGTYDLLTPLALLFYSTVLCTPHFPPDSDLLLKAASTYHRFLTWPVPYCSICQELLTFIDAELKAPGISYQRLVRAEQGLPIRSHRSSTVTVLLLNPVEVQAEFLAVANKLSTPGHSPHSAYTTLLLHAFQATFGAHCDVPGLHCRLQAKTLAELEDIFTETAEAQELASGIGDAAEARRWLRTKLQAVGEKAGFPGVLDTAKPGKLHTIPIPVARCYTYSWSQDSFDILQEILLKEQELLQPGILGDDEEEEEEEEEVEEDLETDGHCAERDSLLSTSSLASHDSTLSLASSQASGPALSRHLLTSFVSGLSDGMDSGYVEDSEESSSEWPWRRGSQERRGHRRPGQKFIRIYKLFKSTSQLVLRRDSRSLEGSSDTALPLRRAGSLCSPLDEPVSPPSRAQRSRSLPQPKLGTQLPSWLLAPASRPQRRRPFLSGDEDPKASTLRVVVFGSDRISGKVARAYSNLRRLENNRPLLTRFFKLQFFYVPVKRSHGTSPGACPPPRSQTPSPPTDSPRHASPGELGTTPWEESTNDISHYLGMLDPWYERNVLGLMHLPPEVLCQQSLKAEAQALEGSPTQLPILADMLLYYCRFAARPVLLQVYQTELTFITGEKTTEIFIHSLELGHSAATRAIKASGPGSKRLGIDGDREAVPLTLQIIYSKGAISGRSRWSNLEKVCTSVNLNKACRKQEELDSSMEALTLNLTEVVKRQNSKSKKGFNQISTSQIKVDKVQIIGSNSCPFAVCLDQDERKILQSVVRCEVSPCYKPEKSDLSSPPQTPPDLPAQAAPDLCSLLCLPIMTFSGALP", "assay": "PI3Kγ in vitro kinase assay", "assay_type": "biochemical", "details": "purified recombinant p101/p110γ with G protein β1/γ2 subunits, 20 μM ATP, PIP2 lipid micelles", "method": "Spodtera frugiperda cells, grown in ESF921 media, were co-infected with baculovirus expressing a glu-tagged p101 and baculovirus expressing an HA-tagged p110γ, at a 3:1 ratio of p101 baculovirus to p110γ baculovirus. Sf9 cells were grown to 1×10^7 total cells/mL in 10 L bioreactors and harvested 48-72 hours post infection. Samples of infected cells were then tested for expression of p101/p110γ PI3 kinase by immunoprecipitation and Western Blot analysis methods (see below).\nTo purify PI3Kγ, 4 volumes of room temperature hypotonic lysis buffer (1 mM MgCl2, 1 mM DTT, 5 mM EGTA, 1 mM Pefabloc, 0.5 μM aprotinin, 5 μM leupeptin, 2 μM pepstatin, 5 μM E64, pH 8) per gram of cell paste, was poured onto frozen cell pellets with stirring, then lysed in a nitrogen “bomb” at 400 psi (599HC T316, Parr Instrument Co, Moline, Ill.). NaCl was added to 150 mM, and sodium cholate was added to 1% and mixed for another 45 minutes. The lysates were clarified by centrifugation for 25 minutes at 14,000 rpm. The lysates were then loaded over anti-glu-linked Protein-G Sepaharose beads (Covance Research Products, Richmond, Calif.) using 20 mL resin/50 g cell paste. The column was washed with 15 volumes of wash buffer (1 mM DTT, 0.2 mM EGTA, 1 mM Pefabloc, 0.5 μM aprotinin, 5 μM leupeptin, 2 μM pepstatin, 5 μM E64, 150 mM NaCl, 1% sodium cholate, pH 8). PI3Kγ was eluted with 6 column volumes of wash buffer that contain 100 μg/mL of a peptide that competes for binding of the glu tag. The column fractions with the eluted protein (determined by taking OD280 readings) were collected and dialyzed in 0.2 mM EGTA, 1 mM DTT, 1 mM Pefabloc, 5 μM leupeptin, 0.5% sodium cholate, 150 mM NaCl, and 50% glycerol, pH 8. The fractions were stored at −80° C. until further use.\nSpodtera frugiperda cells were coinfected with baculovirus expressing a glu-tagged G protein β1 and baculovirus expressing a G protein […], at a 1:1 ratio of glu-tagged G protein […] baculovirus to G protein β2 baculovirus. Sf9 cells are grown in 10 L bioreactors and harvested 48-72 hours post infection. Samples of infected cells were tested for G protein β1/β2 expression by Western Blot analysis, as described below. Cell lysates were homogenized and loaded onto a column of glu-tagged beads as in Biological Example 1 and competed off the column with a glu peptide and processed as described in Biological Example 1.\nThe inhibitory properties of the compounds in Table 1 were assayed in an in vitro PI3K assay. In a 96-well polypropylene plate, each well was spotted with 2 μL of 50 times the desired final concentration of compound in DMSO. Purified recombinant p101/p110γ protein (0.03 μg; ˜2.7 nM) and G protein β1/γ2 subunits (0.09 μg; ˜57.7 nM) for each reaction was combined in the assay buffer (30 mM HEPES, 100 mM NaCl, 1 mM EGTA, and 1 mM DTT). ATP and [γ-^32P-ATP] (0.09 μCi) were added to this mixture so that the final ATP concentration in the reaction was 20 μM. Lipid micelles were formed by sonicating phosphatidylinositol-4,5-diphosphate (PIP2), phosphatidylethanolamine (PE), and Na-cholate in the assay buffer for 10 minutes, adding MgCl2 and incubating on ice for 20 minutes, for final concentrations of 25 μM PIP2, 300 μM PE, 0.02% Na-cholate, and 10 mM MgCl2 in the reaction. The reactions were started by adding equal volumes lipid and enzyme mixture in a total volume of 50 μL, allowed to run for 20 minutes at room temperature, and stopped with 100 μL 75 mM H3PO4. The lipid product was transferred to a glass fiber filter plate and washed with 75 mM H3PO4 several times. The presence of radioactive lipid product (PIP3) was measured by adding Wallac Optiphase mix to each well and counting in a Wallac 1450 Trilux plate reader (PerkinElmer Life Sciences Inc., Boston, Mass. 02118). The IC50 for each compound tested is reported in μM in the Tables above.", "units": {"IC50": "nM"}, "values": [
      {"smiles": "O=C(Nc1nn[nH]n1)c1cnc(N2CCOCC2)nc1OC1CCCC1", "note": "[Example 2, 4-Cyclopentyloxy-2-morpholin-4-yl-pyrimidine-5-carboxylic acid (2H-tetrazol-5-yl)-amide]", "IC50": 1540},
      {"smiles": "CC(C)Oc1nc(N2CCOCC2)ncc1C(=O)Nc1nn[nH]n1", "note": "[Example 3, 4-Isopropoxy-2-morpholin-4-yl-pyrimidine-5-carboxylic acid (2H-tetrazol-5-yl)-amide]", "IC50": 87500},
      {"smiles": "O=C(Nc1nn[nH]n1)c1cnc(N2CCOCC2)nc1OC1CCCCC1", "note": "[Example 4, 4-Cyclohexyloxy-2-morpholin-4-yl-pyrimidine-5-carboxylic acid (2H-tetrazol-5-yl)-amide]", "IC50": 1740},
      {"smiles": "O=C(Nc1nn[nH]n1)c1cnc(N2CCOCC2)nc1OC1CCCCCCC1", "note": "[Example 5, 4-Cyclooctyloxy-2-morpholin-4-yl-pyrimidine-5-carboxylic acid (2H-tetrazol-5-yl)-amide]", "IC50": 502},
      {"smiles": "O=C(Nc1nn[nH]n1)c1cnc(N2CCOCC2)nc1OCCC1CCCCC1", "note": "[Example 6, 4-(2-Cyclohexyl-ethoxy)-2-morpholin-4-yl-pyrimidine-5-carboxylic acid (2H-tetrazol-5-yl)-amide]", "IC50": 10100},
      {"smiles": "O=C(Nc1nn[nH]n1)c1cnc(N2CCOCC2)nc1OCC1CCCCC1", "note": "[Example 7, 4-Cyclohexylmethoxy-2-morpholin-4-yl-pyrimidine-5-carboxylic acid (2H-tetrazol-5-yl)-amide]", "IC50": 1840},
      {"smiles": "COCCOc1nc(N2CCOCC2)ncc1C(=O)Nc1nn[nH]n1", "note": "[Example 8, 4-(2-Methoxy-ethoxy)-Z-morpholin-4-yl-pyrimidine-5-carboxylic acid (2H-tetrazol-5-yl)-amide]", "IC50": 2320},
      {"smiles": "CC1(C)CCCC(Oc2nc(N3CCOCC3)ncc2C(=O)Nc2nn[nH]n2)C1", "note": "(stereo not drawn) [Example 9, 4-(3,3-Dimethyl-cyclohexyloxy)-2-morpholin-4-yl-pyrimidine-5-carboxylic acid (2H-tetrazol-5-yl)-amide]", "IC50": 1360},
      {"smiles": "O=C(Nc1nn[nH]n1)c1cnc(N2CCOCC2)nc1OC1CCOCC1", "note": "[Example 10, 2-Morpholin-4-yl-4-(tetrahydro-pyran-4-yloxy)-pyrimidine-5-carboxylic acid (2H-tetrazol-5-yl)-amide]", "IC50": 10500},
      {"smiles": "O=C(Nc1nn[nH]n1)c1cnc(N2CCOCC2)nc1OC1C2CC3CC(C2)CC1C3", "note": "(stereo not drawn) [Example 11, 4-(Adamantan-2-yloxy)-2-morpholin-4-yl-pyrimidine-5-carboxylic acid (2H-tetrazol-5-yl)-amide]", "IC50": 485},
      {"smiles": "O=C(Nc1nn[nH]n1)c1cnc(N2CCOCC2)nc1OC1CC2CCC1C2", "note": "(stereo not drawn) [Example 12, 4-(Bicyclo[2.2.1]hept-2-yloxy)-2-morpholin-4-yl-pyrimidine-5-carboxylic acid (2H-tetrazol-5-yl)-amide]", "IC50": 845},
      {"smiles": "CC(C)(C)COc1nc(N2CCOCC2)ncc1C(=O)Nc1nn[nH]n1", "note": "[Example 13, 4-(2,2-Dimethyl-propoxy)-2-morpholin-4-yl-pyrimidine-5-carboxylic acid (2H-tetrazol-5-yl)-amide]", "IC50": 2060},
      {"smiles": "CC(C)C(C)Oc1nc(N2CCOCC2)ncc1C(=O)Nc1nn[nH]n1", "note": "(stereo not drawn) [Example 14, 4-(1,2-Dimethyl-propoxy)-2-morpholin-4-yl-pyrimidine-5-carboxylic acid (2H-tetrazol-5-yl)-amide]", "IC50": 1160},
      {"smiles": "CC1(COc2nc(N3CCOCC3)ncc2C(=O)Nc2nn[nH]n2)CC1", "note": "[Example 15, 4-(1-Methyl-cyclopropylmethoxy)-2-morpholin-4-yl-pyrimidine-5-carboxylic acid (2H-tetrazol-5-yl)-amide]", "IC50": 1690},
      {"smiles": "CC1CC(C)CC(Oc2nc(N3CCOCC3)ncc2C(=O)Nc2nn[nH]n2)C1", "note": "(stereo not drawn) [Example 16, 4-(3,5-Dimethyl-cyclohexyloxy)-2-morpholin-4-yl-pyrimidine-5-carboxylic acid (2H-tetrazol-5-yl)-amide]", "IC50": 210},
      {"smiles": "CC(C)c1ccc(Oc2nc(N3CCOCC3)ncc2C(=O)Nc2nn[nH]n2)cc1", "note": "[Example 17, 4-(4-Isopropyl-phenoxy)-2-morpholin-4-yl-pyrimidine-5-carboxylic acid (2H-tetrazol-5-yl)-amide]", "IC50": 805},
      {"smiles": "O=C(Nc1nn[nH]n1)c1cnc(N2CCOCC2)nc1Oc1ccc(C2CCCCC2)cc1", "note": "[Example 18, 4-(4-Cyclohexyl-phenoxy)-2-morpholin-4-yl-pyrimidine-5-carboxylic acid (2H-tetrazol-5-yl)-amide]", "IC50": 154},
      {"smiles": "O=C(Nc1nnn[nH]1)c1cnc(N2CCOCC2)nc1NC1CCCC1", "note": "[Example 19, 4-Cyclopentylamino-2-morpholin-4-yl-pyrimidine-5-carboxylic acid (1H-tetrazol-5-yl)-amide]", "IC50": 32700},
      {"smiles": "O=C(Nc1nnn[nH]1)c1cnc(N2CCOCC2)nc1NCc1ccccc1", "note": "[Example 20, 4-Benzylamino-2-morpholin-4-ylpyrimidine-5-carboxylic acid (1H-tetrazol-5-yl)-amide]", "IC50": 39100},
      {"smiles": "O=C(Nc1nnn[nH]1)c1cnc(N2CCOCC2)nc1NC1CCCCC1", "note": "[Example 21, 4-Cyclohexylamino-2-morpholin-4-yl-pyrimidine-5-carboxylic acid (1H-tetrazol-5-yl)-amide]", "IC50": 28600},
      {"smiles": "Cc1nc(N2CCOCC2)nc(OC2CCCCCC2)c1C(=O)Nc1nn[nH]n1", "note": "[Example 22, 4-Cycloheptyloxy-6-methyl-2-morpholin-4-yl-pyrimidine-5-carboxylic acid (2H-tetrazol-5-yl)-amide]", "IC50": 8440}
    ]}
  ]
}
